Measured values published in US20220125784A1, “METHODS AND COMPOUNDS FOR INHIBITION OF INACTIVATION OF VOLTAGE-GATED SODIUM CHANNELS” (SIMON FRASER UNIVERSITY, priority 2019, published 2022).
“Also recorded” adds a separate entry of the source.

Assays:
WT Nav1.5-α subunits [1] = biological target: T1, WT Nav1.5-α subunits (Homo sapiens, UniProt Q14524); assay: Whole-cell patch clamp, use-dependence (slow inactivation) protocol at 6 Hz in transiently transfected HEK293 cells; format: cell-based; conditions: for UDI Block Slope: Hill curve slope; for IC50: Hill curve, use-dependence at 6 Hz, read-out: UDI Block IC50
T1 construct: expressed in transfected cells; host or cells: HEK293 (transient transfection)
T1 sequence (Q14524 whole entry): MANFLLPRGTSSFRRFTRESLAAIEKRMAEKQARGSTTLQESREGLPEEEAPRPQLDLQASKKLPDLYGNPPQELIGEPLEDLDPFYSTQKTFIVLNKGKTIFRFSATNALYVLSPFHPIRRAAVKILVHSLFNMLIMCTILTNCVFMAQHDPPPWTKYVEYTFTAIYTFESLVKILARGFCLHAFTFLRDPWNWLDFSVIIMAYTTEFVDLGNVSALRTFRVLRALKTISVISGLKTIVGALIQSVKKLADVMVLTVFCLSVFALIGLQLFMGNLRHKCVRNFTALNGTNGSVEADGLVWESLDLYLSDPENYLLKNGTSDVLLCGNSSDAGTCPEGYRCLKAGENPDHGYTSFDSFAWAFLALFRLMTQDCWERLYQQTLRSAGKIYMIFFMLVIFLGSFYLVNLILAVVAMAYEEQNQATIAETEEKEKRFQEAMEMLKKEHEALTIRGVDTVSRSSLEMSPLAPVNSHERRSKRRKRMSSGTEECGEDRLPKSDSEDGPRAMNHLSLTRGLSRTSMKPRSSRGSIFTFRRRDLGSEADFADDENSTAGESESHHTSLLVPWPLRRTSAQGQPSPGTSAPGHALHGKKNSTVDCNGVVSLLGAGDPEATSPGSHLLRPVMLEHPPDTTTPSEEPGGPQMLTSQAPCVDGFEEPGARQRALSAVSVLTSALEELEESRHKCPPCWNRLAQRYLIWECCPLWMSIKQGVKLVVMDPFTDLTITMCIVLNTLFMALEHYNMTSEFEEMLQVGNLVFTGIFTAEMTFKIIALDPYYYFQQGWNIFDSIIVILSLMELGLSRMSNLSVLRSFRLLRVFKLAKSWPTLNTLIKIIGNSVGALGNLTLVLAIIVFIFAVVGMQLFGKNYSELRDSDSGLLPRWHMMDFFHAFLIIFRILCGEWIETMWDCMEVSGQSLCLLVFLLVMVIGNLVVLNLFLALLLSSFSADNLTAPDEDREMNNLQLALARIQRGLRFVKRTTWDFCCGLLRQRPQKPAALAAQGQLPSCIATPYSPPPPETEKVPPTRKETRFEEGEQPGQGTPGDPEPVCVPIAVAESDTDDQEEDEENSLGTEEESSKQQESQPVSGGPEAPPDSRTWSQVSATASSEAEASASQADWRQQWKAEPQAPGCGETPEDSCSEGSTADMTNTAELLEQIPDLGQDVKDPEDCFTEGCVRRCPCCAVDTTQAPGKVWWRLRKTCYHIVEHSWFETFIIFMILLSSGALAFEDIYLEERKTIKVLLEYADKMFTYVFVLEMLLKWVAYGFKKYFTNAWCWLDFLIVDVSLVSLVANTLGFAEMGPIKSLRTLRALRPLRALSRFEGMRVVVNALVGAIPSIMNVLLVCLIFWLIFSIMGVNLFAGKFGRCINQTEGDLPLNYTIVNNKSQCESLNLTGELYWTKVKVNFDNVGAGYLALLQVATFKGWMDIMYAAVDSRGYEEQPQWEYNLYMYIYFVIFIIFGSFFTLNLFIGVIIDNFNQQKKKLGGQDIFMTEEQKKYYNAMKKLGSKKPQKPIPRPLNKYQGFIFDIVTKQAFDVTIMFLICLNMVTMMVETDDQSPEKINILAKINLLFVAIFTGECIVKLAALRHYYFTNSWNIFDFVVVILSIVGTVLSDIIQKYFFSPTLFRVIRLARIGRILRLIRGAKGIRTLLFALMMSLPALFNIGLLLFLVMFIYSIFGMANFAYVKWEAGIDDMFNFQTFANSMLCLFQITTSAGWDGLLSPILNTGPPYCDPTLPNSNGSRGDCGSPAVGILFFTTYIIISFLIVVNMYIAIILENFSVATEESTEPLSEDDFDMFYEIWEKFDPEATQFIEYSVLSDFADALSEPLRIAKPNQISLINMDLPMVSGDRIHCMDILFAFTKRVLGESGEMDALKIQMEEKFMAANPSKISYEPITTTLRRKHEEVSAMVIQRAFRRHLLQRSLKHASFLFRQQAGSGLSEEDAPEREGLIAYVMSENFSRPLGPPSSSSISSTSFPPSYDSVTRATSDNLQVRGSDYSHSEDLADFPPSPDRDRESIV
Protocol: (§1) In one set of studies, we used a whole-cell patch clamp technique with single voltage-pulse protocols (FIGS. 3A-B) to characterize compounds ZINC38767171, ZINC39699427, ZINC40014265, ZINC64470729, ZINC64470737 and ZINC64470745. Whole-cell patch clamp was performed in extracellular solution containing (in mM): 140 NaCl, 4 KCl, 2 CaCl2, 1 MgCl2, and 10 HEPES (pH 7.4 adjusted with CsOH). The intracellular pipettes were dipped in dental wax and thermally polished to attain a resistance of 1.0-1.5 MΩ. The intracellular solutions contained (in mM): 130 CsF, 10 NaCl, 10 HEPES, and 10 EGTA titrated to pH 7.4. The six compounds, ZINC38767171, ZINC39699427, ZINC40014265, ZINC64470729, ZINC64470737 and ZINC64470745, chosen for electrophysiology characterization, ordered from MolPort (Easy compound ordering services), were diluted to 10 μM, 50 μM, and 100 μM in extracellular solution for biophysical assessment of channel gating.
(§2) The six compounds were screened against wild type (WT) Nav1.5-α subunits at the optimal physiological temperature of 37° C. Human Embryonic Kidney (HEK293) cells were transfected with WT Nav1.5-α subunits (transient transfections). The α subunits were co-expressed with the β1 subunit and eGFP (enhanced green fluorescence protein) in a 2:1:2 ratio, respectively.
Slow inactivation (SI) was indirectly determined by measuring use-dependence, which is a physiologically-relevant protocol. The protocol includes a series of 500 110 ms depolarizing pulses to 0 mV followed by a 55 ms-90 mV recovery pulse at a frequency 6 Hz. With repetitive depolarizations, Nav1.5 channels accumulate into slow inactivation.

WT Nav1.5-α subunits [2] = biological target: T1, WT Nav1.5-α subunits; assay: Whole-cell patch clamp, single voltage-pulse protocol (peak INa, conductance, fast inactivation) in transiently transfected HEK293 cells; format: cell-based; conditions: for Peak INa −20 mV: normalized peak INa, 37° C.; for Peak INa Slope: Hill curve slope; for IC50: Hill curve; for IC50 / effect on peak INa: single voltage-pulse protocol; for effect on fast inactivation kinetics: open-state voltages between −30 and +10 mV
Protocol: as §1, §2
Conductance was measured by a protocol that depolarized the membrane from −100 mV to +80 mV in increments of +5 mV for 19 ms. Prior to the test pulse, channels were allowed to recover from fast inactivation at −130 mV for 197 ms. The tested compounds had no effect on the conductance midpoint (FIGS. 6A-F).
At voltages greater than −50 mV, the fast inactivation T values were calculated from the mono-exponential fit to the decay of sodium current.

Row | Structure (SMILES) | UDI Block Slope (WT Nav1.5-α subunits [1]) | IC50 (WT Nav1.5-α subunits [1]) [µM] | % Block −20 mV (WT Nav1.5-α subunits [2]; 10 μM) [%] | fast inactivation onset time constant FI +10 mV (WT Nav1.5-α subunits [2]; 10 μM) [ms] | fast inactivation onset time constant FI −10 mV (WT Nav1.5-α subunits [2]; 10 μM) [ms] | fast inactivation onset time constant FI −30 mV (WT Nav1.5-α subunits [2]; 10 μM) [ms] | fast inactivation onset time constant FI −50 mV (WT Nav1.5-α subunits [2]; 10 μM) [ms] | Peak INa −20 mV (WT Nav1.5-α subunits [2]; 10 μM) | % Block −20 mV (WT Nav1.5-α subunits [2]; 50 μM) [%] | fast inactivation onset time constant FI +10 mV (WT Nav1.5-α subunits [2]; 50 μM) [ms] | fast inactivation onset time constant FI −10 mV (WT Nav1.5-α subunits [2]; 50 μM) [ms] | fast inactivation onset time constant FI −30 mV (WT Nav1.5-α subunits [2]; 50 μM) [ms] | fast inactivation onset time constant FI −50 mV (WT Nav1.5-α subunits [2]; 50 μM) [ms] | Peak INa −20 mV (WT Nav1.5-α subunits [2]; 50 μM) | % Block −20 mV (WT Nav1.5-α subunits [2]; 100 μM) [%] | fast inactivation onset time constant FI +10 mV (WT Nav1.5-α subunits [2]; 100 μM) [ms] | fast inactivation onset time constant FI −10 mV (WT Nav1.5-α subunits [2]; 100 μM) [ms] | fast inactivation onset time constant FI −30 mV (WT Nav1.5-α subunits [2]; 100 μM) [ms] | fast inactivation onset time constant FI −50 mV (WT Nav1.5-α subunits [2]; 100 μM) [ms] | Peak INa −20 mV (WT Nav1.5-α subunits [2]; 100 μM) | further results
1 | O=C1N=c2ccc(C(=O)NCc3ccco3)cc2=NC1=O [ZINC38767171, N-(2-furylmethyl)-2,3-dioxo-quinoxaline-6-carboxamide] | 3.161 | 0.251 | −24.21 | 0.25 ± 0.05 | 0.39 ± 0.06 | 0.71 ± 0.12 | 1.70 ± 0.33 | −0.72 ± 0.06 | −37.89 | 0.34 ± 0.06 | 0.58 ± 0.08 | 0.94 ± 0.10 | 1.79 ± 0.15 | −0.59 ± 0.11 | −38.95 | 0.41 ± 0.11 | 0.60 ± 0.13 | 1.05 ± 0.21 | 1.92 ± 0.38 | −0.58 ± 0.10 | Peak INa Slope (WT Nav1.5-α subunits [2]): 1.697; IC50 (WT Nav1.5-α subunits [2]): 7.61 µM; effect on fast inactivation kinetics (WT Nav1.5-α subunits [2]): significantly decelerated; also recorded: decelerate fast inactivation kinetics, but not significantly
2 | C=CCNS(=O)(=O)c1ccc2c(c1)=NC(=O)N=2 [ZINC39699427, N-allyl-2-oxo-benzimidazole-5-sulfonamide] | 4.556 | 0.196 | −34.00 | 0.21 ± 0.03 | 0.31 ± 0.04 | 0.54 ± 0.09 | 1.32 ± 0.24 | −0.66 ± 0.04 | −42.00 | 0.25 ± 0.03 | 0.35 ± 0.04 | 0.63 ± 0.08 | 1.46 ± 0.09 | −0.58 ± 0.06 | −47.00 | 0.26 ± 0.02 | 0.40 ± 0.03 | 0.72 ± 0.04 | 1.61 ± 0.18 | −0.53 ± 0.07 | effect on use-dependence (WT Nav1.5-α subunits [1]; 6 Hz): significantly increases; Peak INa Slope (WT Nav1.5-α subunits [2]): 0.236; IC50 (WT Nav1.5-α subunits [2]): 6.45 µM; effect on peak INa (WT Nav1.5-α subunits [2]): considerably blocked peak INa at low concentrations
3 | CCc1ccccc1NS(=O)(=O)c1ccc2c(c1)=NC(=O)N=2 [ZINC64470737, N-(2-ethylphenyl)-2-oxo-benzimidazole-5-sulfonamide] | 0.710 | 95.1 | −22.45 | 0.31 ± 0.06 | 0.41 ± 0.07 | 0.66 ± 0.09 | 1.37 ± 0.31 | −0.76 ± 0.13 | −40.82 | 0.39 ± 0.02 | 0.64 ± 0.08 | 1.02 ± 0.13 | 1.88 ± 0.27 | −0.58 ± 0.10 | −74.49 | 0.49 ± 0.00 | 0.66 ± 0.00 | 0.96 ± 0.00 | 1.82 ± 0.00 | −0.25 ± 0.00 | Peak INa Slope (WT Nav1.5-α subunits [2]): 14.37; IC50 (WT Nav1.5-α subunits [2]): 9.86 µM; effect on fast inactivation kinetics (WT Nav1.5-α subunits [2]): significantly decelerated; also recorded: decelerates fast inactivation kinetics the most
4 | COc1cccc(NS(=O)(=O)c2ccc3c(c2)=NC(=O)N=3)c1 [ZINC64470729, N-(3-methoxyphenyl)-2-oxo-benzimidazole-5-sulfonamide] | −0.194 | 40.7 | −22.68 | 0.26 ± 0.04 | 0.40 ± 0.08 | 0.70 ± 0.14 | 1.67 ± 0.21 | −0.75 ± 0.05 | −25.77 | 0.26 ± 0.02 | 0.40 ± 0.03 | 0.75 ± 0.07 | 1.97 ± 0.29 | −0.72 ± 0.06 | −38.14 | 0.23 ± 0.03 | 0.39 ± 0.02 | 0.76 ± 0.09 | 1.71 ± 0.22 | −0.60 ± 0.26 | Peak INa Slope (WT Nav1.5-α subunits [2]): 0.389; IC50 (WT Nav1.5-α subunits [2]): 34.6 µM; effect on fast inactivation kinetics (WT Nav1.5-α subunits [2]): significantly decelerated
5 | Cc1cc(F)ccc1NS(=O)(=O)c1ccc2c(c1)=NC(=O)N=2 [ZINC64470745, N-(4-fluoro-2-methyl-phenyl)-2-oxo-benzimidazole-5-sulfonamide] | 0.289 | 901 | −23.71 | 0.27 ± 0.03 | 0.37 ± 0.03 | 0.66 ± 0.04 | 2.12 ± 0.34 | −0.74 ± 0.06 | −12.37 | 0.25 ± 0.02 | 0.37 ± 0.03 | 0.63 ± 0.05 | 1.75 ± 0.34 | −0.85 ± 0.08 | −24.74 | 0.28 ± 0.04 | 0.45 ± 0.07 | 0.81 ± 0.12 | 1.79 ± 0.20 | −0.73 ± 0.04 | Peak INa Slope (WT Nav1.5-α subunits [2]): 16.06; IC50 (WT Nav1.5-α subunits [2]): 0.928 µM; plateau of drug block on sodium current (WT Nav1.5-α subunits [2]; attained at concentrations above 10 μM): −20%; effect on fast inactivation kinetics (WT Nav1.5-α subunits [2]): significantly decelerated; effect on peak INa (WT Nav1.5-α subunits [2]): blocked peak INa the least; also recorded: does not reduce peak Na at concentrations above 10 μM
